Reference: ChEMBL document CHEMBL1201862, “PubChem BioAssay data set” (2004)
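These data come from cells grown in 96-well plates and exposed to compound for 48 hours at five concentrations. At the GI50, growth is halved.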 Calls of active or inactive are those of the source. Cut-off read from the data, not from the text of the source: active = GI50 up to about 1.1 µM and inactive = higher.

Experiments:
Assay in all cases: NCI tumour cell line growth inhibition, 48 h
HOP-92 = tested on: HOP-92
IGROV-1 = tested on: IGROV-1
U-251 = tested on: U-251
TK-10 = tested on: TK-10
SK-OV-3 = tested on: SK-OV-3
HL-60 = tested on: HL-60
A549 = tested on: A549
DMS-273 = tested on: DMS-273
NCI-H23 = tested on: NCI-H23
RXF 393 = tested on: RXF 393
SNB-78 = tested on: SNB-78
HOP-62 = tested on: HOP-62
EKVX = tested on: EKVX
M19-MEL = tested on: M19-MEL
SR = tested on: SR
NCI-H460 = tested on: NCI-H460
A498 = tested on: A498
K562 = tested on: K562
HT-29 = tested on: HT-29
SNB-19 = tested on: SNB-19
OVCAR-5 = tested on: OVCAR-5
MOLT-4 = tested on: MOLT-4
NCI-H226 = tested on: NCI-H226
NCI-H522 = tested on: NCI-H522
UO-31 = tested on: UO-31
SF-268 = tested on: SF-268
SK-MEL-28 = tested on: SK-MEL-28
KM12 = tested on: KM12
CCRF-CEM = tested on: CCRF-CEM
UACC-62 = tested on: UACC-62
M14 = tested on: M14
CAKI-1 = tested on: CAKI-1
Malme-3M = tested on: Malme-3M
MCF7 = tested on: MCF7
OVCAR-8 = tested on: OVCAR-8
T47D = tested on: T47D
PC-3 = tested on: PC-3
LOX IMVI = tested on: LOX IMVI
MDA-MB-435 = tested on: MDA-MB-435
RPMI-8226 = tested on: RPMI-8226
MDA-N = tested on: MDA-N
UACC-257 = tested on: UACC-257
ACHN = tested on: ACHN
SK-MEL-5 = tested on: SK-MEL-5
HCT-116 = tested on: HCT-116
NCI/ADR-RES = tested on: NCI/ADR-RES
SW-620 = tested on: SW-620
SK-MEL-2 = tested on: SK-MEL-2
786-0 = tested on: 786-0
SN12C = tested on: SN12C
COLO 205 = tested on: COLO 205
DU-145 = tested on: DU-145
SNB-75 = tested on: SNB-75
MDA-MB-231 = tested on: MDA-MB-231
SF-295 = tested on: SF-295
HCT-15 = tested on: HCT-15
BT-549 = tested on: BT-549
OVCAR-4 = tested on: OVCAR-4
SF-539 = tested on: SF-539
HCC 2998 = tested on: HCC 2998
Hs-578T = tested on: Hs-578T
OVCAR-3 = tested on: OVCAR-3

N#CC1Sc2ccccc2-n2cccc21 (stereo not given)
GI50 (HOP-92): 42.6 µM (inactive)
GI50 (IGROV-1): > 100 µM (inactive)
GI50 (U-251): > 100 µM (inactive)
GI50 (TK-10): 80 µM (inactive)
GI50 (SK-OV-3): 67.3 µM (inactive)
GI50 (HL-60): 22.8 µM (inactive)
GI50 (A549): 45 µM (inactive)
GI50 (DMS-273): 44 µM (inactive)
GI50 (NCI-H23): 63.7 µM (inactive)
GI50 (RXF 393): 23.2 µM (inactive)
GI50 (SNB-78): 34.7 µM (inactive)
GI50 (HOP-62): > 100 µM (inactive)
GI50 (EKVX): 61.2 µM (inactive)
GI50 (M19-MEL): > 100 µM (inactive)
GI50 (SR): 37.6 µM (inactive)
GI50 (NCI-H460): > 100 µM (inactive)
GI50 (A498): 67.6 µM (inactive)
GI50 (K562): 26.7 µM (inactive)
GI50 (HT-29): > 100 µM (inactive)
GI50 (SNB-19): > 100 µM (inactive)
GI50 (OVCAR-5): 24.3 µM (inactive)
GI50 (MOLT-4): 58.9 µM (inactive)
GI50 (NCI-H226): 4.98 µM (inactive)
GI50 (NCI-H522): 36.1 µM (inactive)
GI50 (UO-31): 25.4 µM (inactive)
GI50 (SF-268): 25.1 µM (inactive)
GI50 (SK-MEL-28): > 100 µM (inactive)
GI50 (KM12): 85.7 µM (inactive)
GI50 (CCRF-CEM): 70.8 µM (inactive)
GI50 (UACC-62): 30.3 µM (inactive)
GI50 (M14): > 100 µM (inactive)

O=C1CSC(c2ccccc2)N1c1ccc(-n2c(-c3ccccc3)nc3ccccc3c2=O)cc1 (stereo not given)
GI50 (HOP-92): > 61.1 µM (inactive)
GI50 (CAKI-1): > 100 µM (inactive)
GI50 (IGROV-1): 34.8 µM (inactive)
GI50 (U-251): 59.8 µM (inactive)
GI50 (TK-10): > 100 µM (inactive)
GI50 (SK-OV-3): > 100 µM (inactive)
GI50 (Malme-3M): > 92.5 µM (inactive)
GI50 (MCF7): > 92 µM (inactive)
GI50 (OVCAR-8): 61.7 µM (inactive)
GI50 (HL-60): 41.8 µM (inactive)
GI50 (A549): > 74.6 µM (inactive)
GI50 (T47D): 34.8 µM (inactive)
GI50 (NCI-H23): > 71.3 µM (inactive)
GI50 (RXF 393): > 100 µM (inactive)
GI50 (PC-3): 33.9 µM (inactive)
GI50 (LOX IMVI): 50.5 µM (inactive)
GI50 (MDA-MB-435): 63.4 µM (inactive)
GI50 (RPMI-8226): 42.6 µM (inactive)
GI50 (MDA-N): > 79.1 µM (inactive)
GI50 (HOP-62): > 100 µM (inactive)
GI50 (EKVX): > 75.7 µM (inactive)
GI50 (UACC-257): > 100 µM (inactive)
GI50 (SR): 26.9 µM (inactive)
GI50 (NCI-H460): 46.3 µM (inactive)
GI50 (A498): > 100 µM (inactive)
GI50 (K562): 33.1 µM (inactive)
GI50 (HT-29): 61.4 µM (inactive)
GI50 (ACHN): 47.2 µM (inactive)
GI50 (SK-MEL-5): 47.4 µM (inactive)
GI50 (HCT-116): 39.2 µM (inactive)
GI50 (SNB-19): > 69.2 µM (inactive)
GI50 (OVCAR-5): > 100 µM (inactive)
GI50 (NCI/ADR-RES): 64.6 µM (inactive)
GI50 (SW-620): > 100 µM (inactive)
GI50 (SK-MEL-2): > 100 µM (inactive)
GI50 (786-0): > 92.9 µM (inactive)
GI50 (SN12C): 99.3 µM (inactive)
GI50 (MOLT-4): 28.1 µM (inactive)
GI50 (NCI-H226): > 77.3 µM (inactive)
GI50 (COLO 205): 54.2 µM (inactive)
GI50 (DU-145): > 100 µM (inactive)
GI50 (SNB-75): > 100 µM (inactive)
GI50 (NCI-H522): 49.7 µM (inactive)
GI50 (MDA-MB-231): 47.2 µM (inactive)
GI50 (SF-295): 63.2 µM (inactive)
GI50 (UO-31): 28.4 µM (inactive)
GI50 (SF-268): 96.8 µM (inactive)
GI50 (SK-MEL-28): > 80.4 µM (inactive)
GI50 (KM12): 41.1 µM (inactive)
GI50 (CCRF-CEM): 36.3 µM (inactive)
GI50 (HCT-15): 46.9 µM
GI50 (BT-549): > 80.7 µM (inactive)
GI50 (OVCAR-4): 42 µM (inactive)
GI50 (SF-539): 65.2 µM (inactive)
GI50 (HCC 2998): > 100 µM (inactive)
GI50 (UACC-62): 33.3 µM (inactive)
GI50 (M14): > 100 µM (inactive)
GI50 (Hs-578T): > 83.8 µM (inactive)
GI50 (OVCAR-3): 64.1 µM (inactive)
